Source: the NIST ThermoML archive (doi:10.1007/s10765-010-0861-2)

Tests used:
[1] = 101.33 kPa, Liquid; for mass density: Pycnometric method
[2] = xn = mol fraction of the nth substance listed; settings: 308.15 K, 101 kPa, Liquid, Frequency=2 MHz

O=C1CCCN1 [2-pyrrolidinone]
[1]
Settings	mass density [kg/m3]	speed of sound [m/s]
298.15 K	1107.26	–
308.15 K	–	1603

c1ccccc1 [benzene]
[1], 298.15 K
Settings	mass density [kg/m3]	speed of sound [m/s]
–	873.62	1298

c1ccccc1 [benzene] + CCCO
[2]
Settings	speed of sound [m/s]
x1 = 0.0852	1192
x1 = 0.1733	1196
x1 = 0.2644	1200
x1 = 0.3059	1201
x1 = 0.3586	1203
x1 = 0.3995	1204
x1 = 0.4561	1206
x1 = 0.5274	1208
x1 = 0.582	1210
x1 = 0.6618	1213
x1 = 0.7267	1216
x1 = 0.7703	1219
x1 = 0.883	1233
x1 = 0.9335	1242

CCCO [propan-1-ol]
[1], 298.15 K
Settings	mass density [kg/m3]	speed of sound [m/s]
–	799.28	1188

Cc1ccccc1 [toluene]
[1], 298.15 K
Settings	mass density [kg/m3]	speed of sound [m/s]
–	862.23	1305

Cc1ccccc1 [toluene] + CCCO
[2]
Settings	speed of sound [m/s]
x1 = 0.0724	1193
x1 = 0.1494	1199
x1 = 0.2314	1204
x1 = 0.319	1209
x1 = 0.3586	1211
x1 = 0.4352	1216
x1 = 0.5131	1220
x1 = 0.5724	1224
x1 = 0.6211	1227
x1 = 0.6846	1231
x1 = 0.7376	1235
x1 = 0.7829	1239
x1 = 0.8635	1247
x1 = 0.9243	1253
